Drawing on PubChem BioAssay AID328 (DTP/NCI, 2004), this text covers T/C for 17 molecules.

Values joined by “and” are separate entries in the source; they are usually repeats but may differ in a detail not shown here. Identical values can stand only once. Toxic doses and inconclusive results are not listed.

The subject of the experiment is BDF1 mice, P388 leukemia ip, median survival T/C. Put plainly: NCI In Vivo Anticancer Drug Screen. Data for tumor model P388 Leukemia (intraperitoneal) in B6D2F1 (BDF1) mice. To be noted: endpoint: median survival time, higher = longer survival. The essentials:
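Mice carrying the transplantable tumour receive compound or vehicle. Survival is followed in each arm, and the treated measure is divided by the vehicle measure.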

The mark [1] stands for this setting: dose: 100.0 mg/kg/injection, schedule: Q01DX009 (ip), vehicle: water.
Setting [2] is: dose: 200.0 mg/kg/injection, schedule: Q01DX009 (ip), vehicle: water.
Setting [3] is: dose: 400.0 mg/kg/injection, schedule: Q01DX009 (ip), vehicle: water.
The mark [4] stands for this setting: dose: 100.0 mg/kg/injection, schedule: Q04DX003 (ip), vehicle: saline with Tween-80.
Setting [5] is: dose: 200.0 mg/kg/injection, schedule: Q04DX003 (ip), vehicle: saline with Tween-80.
Where [6] appears, read: dose: 400.0 mg/kg/injection, schedule: Q04DX003 (ip), vehicle: saline with Tween-80.
The mark [7] stands for this setting: dose: 50.0 mg/kg/injection, schedule: Q01DX009 (ip), vehicle: saline with Tween-80.
The mark [8] stands for this setting: dose: 100.0 mg/kg/injection, schedule: Q01DX009 (ip), vehicle: saline with Tween-80.
The mark [9] stands for this setting: dose: 200.0 mg/kg/injection, schedule: Q01DX009 (ip), vehicle: saline with Tween-80.
[10] abbreviates: dose: 100.0 mg/kg/injection, schedule: Q01DX009 (ip), vehicle: saline.
Where [11] appears, read: dose: 100.0 mg/kg/injection, schedule: Q04DX003 (ip), vehicle: saline.
The mark [12] stands for this setting: dose: 200.0 mg/kg/injection, schedule: Q01DX009 (ip), vehicle: saline.
Setting [13] is: dose: 200.0 mg/kg/injection, schedule: Q04DX003 (ip), vehicle: saline.
[14] abbreviates: dose: 400.0 mg/kg/injection, schedule: Q01DX009 (ip), vehicle: saline.
Where [15] appears, read: dose: 400.0 mg/kg/injection, schedule: Q04DX003 (ip), vehicle: saline.
Setting [16] is: dose: 100.0 mg/kg/injection, schedule: Q04DX003 (ip), vehicle: saline sonified.

Regarding `CCc1c(Cl)c(C)cc(O)c1Cl`, the T/C reads like this: (dose: 18.0 mg/kg/injection, schedule: Q01DX009 (ip), vehicle: gum acacia) 112 % of control; (dose: 25.0 mg/kg/injection, schedule: Q01DX009 (ip), vehicle: gum acacia) 112 % of control; (dose: 25.0 mg/kg/injection, schedule: Q04DX003 (ip), vehicle: gum acacia) 88 % of control; (dose: 50.0 mg/kg/injection, schedule: Q01DX009 (ip), vehicle: gum acacia) 100 % of control; (dose: 50.0 mg/kg/injection, schedule: Q04DX003 (ip), vehicle: gum acacia) 92 % of control; (dose: 100.0 mg/kg/injection, schedule: Q04DX003 (ip), vehicle: gum acacia) 96 % of control.

Consider `c1ccc2c(c1)Cc1nc3ccccc3nc1-2`, for which the T/C is, setting by setting: (dose: 3.12 mg/kg/injection, schedule: Q01DX009 (ip), vehicle: water) 87 % of control; (dose: 6.25 mg/kg/injection, schedule: Q01DX009 (ip), vehicle: water) 101 % of control and 110 % of control; (dose: 12.5 mg/kg/injection, schedule: Q01DX009 (ip), vehicle: water) 87 % of control and 110 % of control; (dose: 25.0 mg/kg/injection, schedule: Q01DX009 (ip), vehicle: water) 93 % of control and 106 % of control and 114 % of control; (dose: 25.0 mg/kg/injection, schedule: Q04DX003 (ip), vehicle: water) 116 % of control; (dose: 50.0 mg/kg/injection, schedule: Q01DX009 (ip), vehicle: water) 89 % of control and 95 % of control. For the same molecule, the T/C is 102 % of control (dose: 50.0 mg/kg/injection, schedule: Q04DX003 (ip), vehicle: water); 87 % of control and 110 % of control under setting [1]; 103 % of control (dose: 100.0 mg/kg/injection, schedule: Q04DX003 (ip), vehicle: water); 98 % of control under setting [2]; 104 % of control (dose: 200.0 mg/kg/injection, schedule: Q04DX003 (ip), vehicle: water); 104 % of control under setting [3]. Also, where the note is “dose: 400.0 mg/kg/injection, schedule: Q04DX003 (ip), vehicle: water”, the T/C is 113 % of control.

Turning to `CCCCCCC/C=C\c1cnc2nc(N)nc(N)c2n1`, the T/C reads like this: under setting [4], 92 % of control; under setting [5], 89 % of control; under setting [6], 92 % of control.

For the molecule `CCOC(=O)/C(C#N)=C/c1ccc(O)c(OC)c1`, the T/C is 105 % of control (dose: 100.0 mg/kg/injection, schedule: Q01DX009 (ip), vehicle: Klucel (hydroxypropylcellulose) (HPC)); 95 % of control (dose: 100.0 mg/kg/injection, schedule: Q04DX003 (ip), vehicle: Klucel (hydroxypropylcellulose) (HPC)); 110 % of control (dose: 200.0 mg/kg/injection, schedule: Q01DX009 (ip), vehicle: Klucel (hydroxypropylcellulose) (HPC)); 100 % of control (dose: 200.0 mg/kg/injection, schedule: Q04DX003 (ip), vehicle: Klucel (hydroxypropylcellulose) (HPC)); 95 % of control (dose: 400.0 mg/kg/injection, schedule: Q01DX009 (ip), vehicle: Klucel (hydroxypropylcellulose) (HPC)); 100 % of control (dose: 400.0 mg/kg/injection, schedule: Q04DX003 (ip), vehicle: Klucel (hydroxypropylcellulose) (HPC)).

`CCOc1nc(=O)n(CC(=O)c2ccc(Cl)s2)cc1F`: the T/C was 114 % of control under setting [7]; 103 % of control under setting [8]; 110 % of control under setting [4]; 99 % of control under setting [9]; 111 % of control under setting [5]; 87 % of control (dose: 400.0 mg/kg/injection, schedule: Q01DX009 (ip), vehicle: saline with Tween-80). Also, the T/C under setting [6] was 104 % of control.

In the case of `COc1ccc(C=Nc2c(N)[nH]c(=S)[nH]c2=O)cc1`, the T/C is, setting by setting: (dose: 100.0 mg/kg/injection, schedule: Q04DX002 (ip), vehicle: saline with Tween-80) 115 % of control and 117 % of control; (dose: 200.0 mg/kg/injection, schedule: Q04DX002 (ip), vehicle: saline with Tween-80) 105 % of control and 117 % of control.

Regarding `COC1N(C2CC(O)C(CO)O2)C(=O)NC(=O)C1(F)Br` (stereo not given), the T/C runs as follows: (dose: 5.0 mg/kg/injection, schedule: Q01DX009 (ip), vehicle: saline) 90 % of control; (dose: 10.0 mg/kg/injection, schedule: Q01DX009 (ip), vehicle: saline) 109 % of control; (dose: 20.0 mg/kg/injection, schedule: Q01DX009 (ip), vehicle: saline) 109 % of control; (dose: 40.0 mg/kg/injection, schedule: Q01DX009 (ip), vehicle: saline) 122 % of control; (dose: 50.0 mg/kg/injection, schedule: Q01DX009 (ip), vehicle: saline) 111 % of control; under setting [10], 113 % of control. For the same molecule, the T/C by setting is: under setting [11], 104 % of control; under setting [12], 106 % of control; under setting [13], 122 % of control; under setting [14], 94 % of control; under setting [15], 150 % of control.

As for `BrC1C2C=CCC1CC2` (stereo not given), the T/C under setting [10] is 100 % of control; the T/C under setting [11] was 91 % of control; the T/C under setting [12] was 90 % of control; the T/C under setting [13] was 91 % of control; the T/C under setting [14] is 104 % of control; the T/C under setting [15] was 95 % of control.

For the molecule `CC(C)(C)NC(=S)Nc1ccc2c(c1)nc(-c1ccccc1)c1cc(NC(=S)NC(C)(C)C)ccc12`, the T/C under setting [4] is 111 % of control and the T/C under setting [5] was 100 % of control.

For the molecule `CC1CC(O)C2C3(C)CCCC2(COC3=O)C12CCC1(CCOC1=O)O2` (stereo not given), the T/C was 112 % of control (dose: 0.13 mg/kg/injection, schedule: Q01DX009 (ip), vehicle: saline); 104 % of control (dose: 0.25 mg/kg/injection, schedule: Q01DX009 (ip), vehicle: saline); 93 % of control (dose: 0.5 mg/kg/injection, schedule: Q01DX009 (ip), vehicle: saline); 104 % of control (dose: 1.0 mg/kg/injection, schedule: Q01DX009 (ip), vehicle: saline).

On to `C=C(C(N)=O)c1cc(Cl)ccc1Cl`, for which the T/C under setting [1] was 110 % of control; the T/C under setting [4] is 100 % of control; the T/C under setting [2] was 100 % of control; the T/C under setting [5] is 95 % of control; the T/C under setting [3] is 100 % of control; the T/C under setting [6] is 95 % of control.

Consider `Cc1cc(=O)[nH]c(N/N=C/c2ccccc2O)n1`, for which the T/C is 90 % of control (dose: 200.0 mg/kg/injection, schedule: Q01DX010 (ip), vehicle: saline); 95 % of control (dose: 300.0 mg/kg/injection, schedule: Q01DX010 (ip), vehicle: saline); 95 % of control (dose: 400.0 mg/kg/injection, schedule: Q01DX010 (ip), vehicle: saline); 95 % of control (dose: 500.0 mg/kg/injection, schedule: Q01DX010 (ip), vehicle: saline).

In the case of `O=C(Nc1ccccc1O)c1ccccc1`, the T/C by setting is: under setting [16], 90 % of control; (dose: 200.0 mg/kg/injection, schedule: Q04DX003 (ip), vehicle: saline sonified) 100 % of control; (dose: 400.0 mg/kg/injection, schedule: Q04DX003 (ip), vehicle: saline sonified) 90 % of control.

`O=C(O)c1ccccc1NC(=O)C(F)(F)F`: the T/C by setting is: (dose: 25.0 mg/kg/injection, schedule: Q04DX003 (ip), vehicle: saline sonified) 91 % of control; (dose: 50.0 mg/kg/injection, schedule: Q04DX003 (ip), vehicle: saline sonified) 91 % of control; under setting [16], 91 % of control.

Regarding `Cc1cc(-c2ccccc2)nnc1NCCN1CCOCC1`, the T/C was 106 % of control (dose: 6.25 mg/kg/injection, schedule: Q01DX009 (ip), vehicle: saline); 90 % of control (dose: 12.5 mg/kg/injection, schedule: Q01DX009 (ip), vehicle: saline); 88 % of control (dose: 25.0 mg/kg/injection, schedule: Q01DX009 (ip), vehicle: saline).

Consider `OC1CCCCC2CC12` (stereo not given), for which the T/C under setting [7] was 101 % of control, the T/C under setting [8] was 101 % of control and the T/C under setting [9] was 102 % of control.

As to `CC(Cl)(Cl)CC(O)(C(F)(F)F)C(F)(F)F`, the T/C is 95 % of control (dose: 50.0 mg/kg/injection, schedule: Q04DX003 (ip), vehicle: saline with Tween-80); 90 % of control under setting [4]; 90 % of control under setting [5].
